Test results published in the supplement of paper PMC6045584.
± gives the standard deviation of the averaged measurements.

Key:
2-METHOXYESTRADIOL = compound: COc1cc2c(cc1O)CC[C@@H]1[C@@H]2CC[C@]2(C)[C@@H](O)CC[C@@H]12 [2-METHOXYESTRADIOL]; assay: surviving fraction relative to DMSO-only wells; higher = less growth inhibition; settings: exposure time: 5 days
Procedure, shortened: (§1)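 Tumour cell lines were grown to log phase and seeded at 250–500 cells per well in 384-well plates. They were exposed continuously to inhibitors at 0.5, 1, 5, 10, 50, 100, 500 and 1000 nM for five days, beginning 24 hours after seeding. Surviving fraction is CellTiter-Glo luminescence normalised to the median of DMSO-only wells.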

RESVERATROL = compound: Oc1ccc(/C=C/c2cc(O)cc(O)c2)cc1 [RESVERATROL]; assay: as above; settings: exposure time: 5 days
Procedure, shortened: as §1

Row | Test System | surviving fraction (2-METHOXYESTRADIOL; 0.5 nM) | surviving fraction (2-METHOXYESTRADIOL; 1 nM) | surviving fraction (2-METHOXYESTRADIOL; 5 nM) | surviving fraction (2-METHOXYESTRADIOL; 10 nM) | surviving fraction (2-METHOXYESTRADIOL; 50 nM) | surviving fraction (2-METHOXYESTRADIOL; 100 nM) | surviving fraction (2-METHOXYESTRADIOL; 500 nM) | surviving fraction (2-METHOXYESTRADIOL; 1000 nM) | surviving fraction (RESVERATROL; 0.5 nM) | surviving fraction (RESVERATROL; 1 nM) | surviving fraction (RESVERATROL; 5 nM) | surviving fraction (RESVERATROL; 10 nM) | surviving fraction (RESVERATROL; 50 nM) | surviving fraction (RESVERATROL; 100 nM) | surviving fraction (RESVERATROL; 500 nM) | surviving fraction (RESVERATROL; 1000 nM)
1 | SKBR3 BREAST | 0.913 ± 0.033 | 0.924 ± 0.16 | 1.09 ± 0.065 | 0.956 ± 0.12 | 0.986 ± 0.079 | 0.986 ± 0.056 | 0.882 ± 0.099 | 0.548 ± 0.051 | 0.966 ± 0.15 | 1.06 ± 0.048 | 1.1 ± 0.1 | 1.07 ± 0.076 | 1.08 ± 0.053 | 1.09 ± 0.028 | 1.11 ± 0.12 | 1.04 ± 0.055
2 | SNU475 LIVER | 0.989 ± 0.048 | 1.01 ± 0.032 | 0.967 ± 0.026 | 0.968 ± 0.06 | 1.02 ± 0.053 | 0.997 ± 0.059 | 0.956 ± 0.057 | 0.775 ± 0.051 | 0.98 ± 0.043 | 1.04 ± 0.029 | 1.02 ± 0.06 | 0.988 ± 0.029 | 0.9453 ± 0.006 | 1.01 ± 0.014 | 0.99 ± 0.035 | 1.04 ± 0.017
3 | SUM44 BREAST | 1.14 ± 0.32 | 1.15 ± 0.3 | 1.14 ± 0.23 | 1.12 ± 0.2 | 1.3 ± 0.4 | 1.21 ± 0.33 | 0.837 ± 0.091 | 0.53 ± 0.054 | 1.1 ± 0.1 | 1.18 ± 0.28 | 1.19 ± 0.27 | 1.25 ± 0.36 | 1.1 ± 0.17 | 1.21 ± 0.26 | 1.2 ± 0.3 | 1.31 ± 0.41
4 | SUM149 BREAST | 0.984 ± 0.04 | 0.997 ± 0.052 | 1.07 ± 0.072 | 0.955 ± 0.025 | 1 ± 0.052 | 0.934 ± 0.065 | 0.442 ± 0.052 | 0.133 ± 0.022 | 0.958 ± 0.048 | 1.02 ± 0.07 | 1.04 ± 0.082 | 0.958 ± 0.013 | 1.07 ± 0.048 | 0.989 ± 0.062 | 1.09 ± 0.034 | 1.09 ± 0.1
5 | SUM149.B1*.S BREAST | 1.04 ± 0.011 | 1.02 ± 0.046 | 1.02 ± 0.025 | 1.02 ± 0.04 | 1.06 ± 0.025 | 1.08 ± 0.019 | 0.968 ± 0.015 | 0.628 ± 0.036 | 1.05 ± 0.056 | 1.09 ± 0.041 | 1.08 ± 0.051 | 1.1 ± 0.061 | 1.02 ± 0.036 | 1.128 ± 0.0016 | 1.09 ± 0.043 | 1.14 ± 0.026
6 | SUM159 BREAST | 1.02 ± 0.028 | 1.02 ± 0.028 | 1.01 ± 0.027 | 1.02 ± 0.022 | 1.02 ± 0.023 | 1.04 ± 0.021 | 0.9593 ± 0.0093 | 0.562 ± 0.074 | 1.04 ± 0.028 | 1.1 ± 0.024 | 1.06 ± 0.03 | 1.06 ± 0.021 | 1.033 ± 0.0053 | 1.07 ± 0.016 | 1.08 ± 0.018 | 1.11 ± 0.017
